# Values joined by “and” are separate entries in the source; they are usually repeats but may differ in a detail not shown here. Equal entries are not always repeated. “Also recorded” adds a separate entry of the source. Where two headings read alike, the source gives them in different places. Non-standard residues stand in square brackets, D forms with d. Residues, ends and D or L forms follow the SMILES beside them.
# How the values were obtained:
# [1] = test system: G-proteins coupled to opioid and ET receptors; assay: [35S]GTPγS binding assay (G-protein stimulation) in neuronal membranes of neonatal rat brain, placebo and morphine withdrawal groups; type: biochemical; details: for Effect on [35S]GTPγS binding: brain of neonatal rats; for Effect on GTP binding: morphine withdrawal group compared to placebo; for Maximal stimulation of [35S]GTPγS binding / EC50: neonatal rat brain; for Maximal stimulation of [35S]GTPγS binding: 0.98 to 1000 nM; for EC50: read-out: EC50 for stimulated [35S]GTPγS binding
# ET receptors = details: co-administration with morphine; cited from earlier work
# central ET receptors = details: intracerebroventricular administration; cited from earlier work
SMILES,Effect on [35S]GTPγS binding [1],Effect on GTP binding [1],Maximal stimulation of [35S]GTPγS binding ([1]; morphine withdrawal group),EC50 ([1]; morphine withdrawal group),Effect on G-protein stimulation / GTP binding ([1]; placebo (normal) group),Maximal stimulation of [35S]GTPγS binding ([1]; placebo group),EC50 ([1]; placebo group) [nM],Effect on morphine-induced analgesia and hyperthermia (ET receptors),Effect on mean arterial blood pressure (BP) (central ET receptors)
Cc1noc(NS(=O)(=O)c2cccc3c(N(C)C)cccc23)c1C [BMS182874],concentration-dependent increase,significantly increased GTP binding,86.07%,31.2 nM and 33.2 nM,did not affect GTP binding; also recorded: did not stimulate G-proteins,6.71±1.51%,> 1000,–,–
CC(C)C[C@@H]1NC(=O)[C@@H](C(C)C)NC(=O)[C@@H]2CCCN2C(=O)[C@@H](CC(=O)O)NC(=O)[C@@H](Cc2c[nH]c3ccccc23)NC1=O [BQ123] (cyclo(L[dW][dD]P[dV])),–,–,–,–,–,–,–,potentiate morphine-induced analgesia and hyperthermia without affecting catalepsy,–
CC[C@H](C)[C@H](NC(=O)[C@H](CC(=O)O)NC(=O)[C@H](CC(C)C)NC(=O)[C@H](Cc1c[nH]cn1)NC(=O)[C@@H]1CSSC[C@H](N)C(=O)N[C@@H](CO)C(=O)N[C@H]2CSSC[C@H](NC(=O)[C@H](CCC(=O)O)NC(=O)[C@H](CCCCN)NC(=O)[C@H](CC(=O)O)NC(=O)[C@H](CCSC)NC(=O)[C@H](CC(C)C)NC(=O)[C@H](CO)NC(=O)[C@H](CO)NC2=O)C(=O)N[C@@H](C(C)C)C(=O)N[C@@H](Cc2ccc(O)cc2)C(=O)N[C@@H](Cc2ccccc2)C(=O)N1)C(=O)N[C@H](C(=O)N[C@@H](Cc1c[nH]c2ccccc12)C(=O)O)[C@@H](C)CC [ET-1],concentration-dependent increase,lower; also recorded: attenuated,87.16±4.83%,171 nM,–,74.88±1.50%,20.66 ± 0.12,–,transient rise followed by sustained fall
CN1CC[C@]23c4c5ccc(O)c4O[C@H]2[C@@H](O)C=C[C@H]3[C@H]1C5 [Morphine],concentration-dependent increase,higher,83.60% and 83.60±5.77%,–,–,66.81% and 66.31±1.51%,–,–,–

# — patent publication US20100323456A1 (priority 2006, published 2010)
